Results: US20240226115A1, “AXL INHIBITOR COMPOUNDS” (ARCUS BIOSCIENCES, INC., priority 2021, published 2024)

molecular target: T1, recombinant human TYRO3 (Homo sapiens, UniProt Q06418); assay: HTRF KinEASE-TK biochemical potency, TYRO3; conditions: 1 nM TYRO3, 700 μM ATP
T1 construct: purchased Invitrogen
T1 sequence (Q06418 41-890): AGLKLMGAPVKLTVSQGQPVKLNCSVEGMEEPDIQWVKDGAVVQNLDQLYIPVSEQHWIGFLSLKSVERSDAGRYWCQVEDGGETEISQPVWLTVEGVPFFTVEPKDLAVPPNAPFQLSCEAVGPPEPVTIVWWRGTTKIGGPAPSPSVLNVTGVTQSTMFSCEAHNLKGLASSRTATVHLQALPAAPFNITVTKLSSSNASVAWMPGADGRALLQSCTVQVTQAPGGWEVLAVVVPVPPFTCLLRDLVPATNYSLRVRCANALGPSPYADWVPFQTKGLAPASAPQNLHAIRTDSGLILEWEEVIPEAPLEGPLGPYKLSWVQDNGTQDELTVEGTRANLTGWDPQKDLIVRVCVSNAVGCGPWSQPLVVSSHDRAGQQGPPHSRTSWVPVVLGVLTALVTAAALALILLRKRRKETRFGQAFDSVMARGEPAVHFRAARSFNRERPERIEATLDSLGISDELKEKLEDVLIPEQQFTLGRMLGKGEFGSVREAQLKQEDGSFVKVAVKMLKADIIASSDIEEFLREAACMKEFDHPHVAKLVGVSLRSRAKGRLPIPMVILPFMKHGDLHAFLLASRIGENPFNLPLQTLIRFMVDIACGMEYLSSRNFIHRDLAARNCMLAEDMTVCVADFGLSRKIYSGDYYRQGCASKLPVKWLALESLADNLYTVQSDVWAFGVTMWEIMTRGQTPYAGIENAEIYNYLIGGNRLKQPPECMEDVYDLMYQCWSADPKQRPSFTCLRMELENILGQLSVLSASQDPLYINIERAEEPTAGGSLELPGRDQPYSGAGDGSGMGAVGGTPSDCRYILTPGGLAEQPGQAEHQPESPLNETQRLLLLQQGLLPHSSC
In short: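 Enzyme preincubated with compound 1 h at RT; final 5 nM AXL or 1 nM TYRO3/MER, 800 nM TK substrate-biotin, 700 μM ATP, HEPES pH 7.4, MgCl2, 1% DMSO, 2 h at RT. HTRF 665/620 ratio read after streptavidin-XL665/cryptate antibody detection; percent activity relative to DMSO and pre-stopped controls.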

IC50, < 100 nM:
Cc1c(-c2n[nH]c3ncc(-c4ccc5c(c4)CCC(N4CCC[C@H]4C)CC5)cc23)ccc2c1OCCNC2=O (stereo partly drawn) [Example 41, 9-Methyl-8-(5-{7-[(2R)-2-methylpyrrolidin-1-yl]-6,7,8,9-tetrahydro-5H-benzo[7]annulen-2-yl}-1H-pyrazolo[3,4-b]pyridin-3-yl)-2,3,4,5-tetrahydro-1,4-benzoxazepin-5-one]
C[C@@H]1CCCN1C1(C)CCc2ccc(-c3cnc4[nH]nc(-c5ccc6c(c5)OCCNC6=O)c4c3)cc2CC1 (stereo partly drawn) [Example 23, 8-(5-{7-Methyl-7-[(2R)-2-methylpyrrolidin-1-yl]-6,7,8,9-tetrahydro-5H-benzo[7]annulen-2-yl}-1H-pyrazolo[3,4-b]pyridin-3-yl)-2,3,4,5-tetrahydro-1,4-benzoxazepin-5-one]
CC1(C)COc2cc(-c3n[nH]c4ncc(-c5ccc6c(c5)CCC(N5CCCC5)CC6)cc34)ccc2C(=O)N1 (stereo not shown) [Example 35, 3,3-Dimethyl-8-{5-[7-(pyrrolidin-1-yl)-6,7,8,9-tetrahydro-5H-benzo[7]annulen-2-yl]-1H-pyrazolo[3,4-b]pyridin-3-yl}-2,3,4,5-tetrahydro-1,4-benzoxazepin-5-one]
O=C1NCCOc2cc(-c3n[nH]c4ncc(-c5ccc6c(c5)CNCC6)cc34)ccc21 [Example 55, 8-(5-(1,2,3,4-Tetrahydroisoquinolin-7-yl)-1H-pyrazolo[3,4-b]pyridin-3-yl)-3,4-dihydrobenzo[f][1,4]oxazepin-5(2H)-one]
